Tested on: disuse-induced atrophy of skeletal muscle
Assay: mouse leg casting disuse atrophy model
Format: in vivo
Conditions: ten days
Procedure: (§1) Legend: A—physiological saline (control); B—theophylline; C—sauvagine (0.03 mg/kg)+theophylline; D—sauvagine (0.1 mg/kg)+theophylline; E—sauvagine (0.3 mg/kg)+theophylline; *—p≦0.05 compared to saline. Following casting of the right hind leg, male mice were injected subcutaneously in the midscapular region twice daily, with sauvagine or vehicle control (physiological saline) for ten days at the daily delivered dose indicated. Sauvagine was co-administered with twice daily intra-peritoneal dosing of the phosphodiesterase inhibitor theophylline (30 mg/kg). On day ten, the medial gastrocnemius and tibialis anterior muscles were removed and weighed to determine the degree of atrophy.
as §1, with “B—urocortin” for “B—theophylline; C—sauvagine (0.03 mg/kg)+theophylline; D—sauvagine (0.1 mg/kg)+theophylline; E—sauvagine”, “urocortin” for “sauvagine”, “days. Urocortin was administered” for “days”, “doses indicated in the description of FIGS. 6A and 6B. Urocortin” for “daily delivered dose indicated. Sauvagine”
Legend: A—non casted muscle control; B—casted muscle, saline control; C—casted muscle, sauvagine (0.3 mg/kg)+theophylline (30 mg/kg); *—p≦0.05 compared to saline. Following casting of the right hind leg, male mice were injected subcutaneously in the midscapular region twice daily, with either sauvagine or vehicle control (physiological saline) for ten days at the doses indicated above. Sauvagine was co-administered 30 mg/kg theophylline. On day ten, the EDL and soleus muscles were removed and absolute force and mass measurements taken to determine the degree of atrophy.
The leg casting disuse atrophy model involves casting one hind leg of an animal from the knee down through the foot. Typically, muscle mass is reduced 20-40% after ten days of casting. Following casting, test compounds are administered by injection or by continuous infusion via implantation of an osmotic minipump (e.g., Alzet, Palo Alto, Calif.) to determine their effect on leg casting induced skeletal muscle atrophy. At various times following leg casting, the extent of atrophy in the affected muscles is analyzed as described above for the denervation model.
The extensor digitorum longus (EDL) and soleus muscles are removed, tendon-to-tendon from the casted mouse leg. A silk suture is tied to each tendon of the isolated muscles and the muscles are placed into a plexiglass chamber filled with Ringer solution (137 mM sodium chloride, 24 mM sodium bicarbonate, 11 mM glucose, 5 mM potassium chloride, 1 mM magnesium sulfate, 1 mM sodium phosphate, 0.025 mM tubocurarine, all at pH 7.4 and oxygenated with 95% oxygen/5% carbon dioxide) constantly bubbled with 95% oxygen/5% carbon dioxide maintained at 25° C. Muscles are aligned horizontally between a servomotor lever arm (Model 305B-LR Cambridge Technology Inc., Watertown Mass., USA) and the stainless steel hook of a force transducer (Model BG-50; Kulite Semiconductor Products Inc., Leonia, N.J., USA) and field stimulated by pulses transmitted between two platinum electrodes placed longitudinally on either side of the muscle. Square wave pulses (0.2 ms duration) generated by a personal computer with a Labview board (Model PCI-MIO 16E-4), Labview Inc., Austin, Tex., USA) are amplified (Acurus power amplifier model A25, Dobbs Ferry, N.Y., USA) to increase titanic contraction. Stimulation voltage and muscle length (Lo) are adjusted to obtain maximum isometric twitch force. Maximum titanic force production (Po) is determined from the plateau of the frequency-force relationship.

[1] = FIG. 9A, male mice, 0.3 mg/kg s.c. twice daily + theophylline 30 mg/kg

In the case of `CC[C@H](C)[C@H](NC(=O)[C@@H](NC(=O)[C@H](CC(=O)O)NC(=O)[C@H](CC(C)C)NC(=O)[C@H](CC(C)C)NC(=O)[C@H](CC(C)C)NC(=O)[C@H](CCCNC(=N)N)NC(=O)[C@H](CC(N)=O)NC(=O)[C@H](CC(N)=O)NC(=O)[C@H](C)NC(=O)[C@H](C)NC(=O)[C@H](CCC(N)=O)NC(=O)[C@H](CCC(N)=O)NC(=O)[C@H](CCCCN)NC(=O)[C@H](CCC(=O)O)NC(=O)[C@H](CCCCN)NC(=O)[C@H](CCC(=O)O)NC(=O)[C@H](CCC(N)=O)NC(=O)[C@H](CCCCN)NC(=O)[C@H](CCC(=O)O)NC(=O)[C@@H](NC(=O)[C@H](CCC(=O)O)NC(=O)[C@@H](NC(=O)[C@H](CCSC)NC(=O)[C@H](CCCCN)NC(=O)[C@H](CCCNC(=N)N)NC(=O)[C@H](CC(C)C)NC(=O)[C@H](CC(C)C)NC(=O)[C@H](CCC(=O)O)NC(=O)[C@H](CC(C)C)NC(=O)[C@H](CO)NC(=O)[C@H](CC(C)C)NC(=O)[C@H](CC(=O)O)NC(=O)[C@@H](NC(=O)[C@H](CO)NC(=O)[C@@H](NC(=O)[C@@H]1CCCN1C(=O)[C@@H]1CCCN1C(=O)CNC(=O)[C@@H]1CCC(=O)N1)[C@@H](C)CC)[C@@H](C)CC)[C@@H](C)CC)[C@@H](C)CC)[C@@H](C)O)C(N)=O` [sauvagine], the “disuse-induced atrophy of the tibialis anterior muscle (muscle weight)” value (FIG. 4A, casted leg, male mice, 0.03-0.3 mg/kg s.c. twice daily + theophylline 30 mg/kg i.p.) was “inhibits disuse-induced atrophy”, the “hypertrophy of the tibialis anterior muscle of the non-casted leg” value (FIG. 4A, non-casted leg, 0.03-0.3 mg/kg s.c. twice daily + theophylline 30 mg/kg i.p.) was “statistically significant hypertrophy” and the “disuse-induced atrophy of the medial gastrocnemius muscle (muscle weight)” value (FIG. 4B, casted leg, male mice, 0.03-0.3 mg/kg s.c. twice daily + theophylline 30 mg/kg i.p.) was “inhibits disuse-induced atrophy”. For the same molecule, the “hypertrophy of the medial gastrocnemius muscle of the non-casted leg” value (FIG. 4B, non-casted leg, 0.03-0.3 mg/kg s.c. twice daily + theophylline 30 mg/kg i.p.) was “statistically significant hypertrophy”, the “disuse-induced loss of EDL muscle mass” value [1] was “inhibits disuse-induced loss” and the “disuse-induced loss of soleus muscle mass” value [1] was “inhibits disuse-induced loss”. The “loss of muscle function as assessed by measurement of absolute force” value (FIG. 9B, EDL and soleus muscles, 0.3 mg/kg s.c. twice daily + theophylline 30 mg/kg) was “inhibits loss of muscle function”.
